According to ChEMBL document CHEMBL3885861, “Open TG-GATES”:

Organism: Rattus norvegicus
Assay: Open TG-GATES - Regimen: Single
Assay type: toxicity, organism-based, Sprague-Dawley
Parameters: regimen Single, gender Male, age 6 weeks
Conditions: in vivo, po, 150 mg/kg, route gavage, dose level Middle; for APTT / Bas / Eos / Fbg / Hb / Ht / Lym / MCH / MCHC / MCV / Mono / Neu / PT / Plat / RBC / Ret / WBC: tissue Blood; for KIDNEY_L / KIDNEY_R / KIDNEY_TOTAL: tissue Kidney; for LIVER: tissue Liver; for A/G / ALP / ALT / AST / BUN / CRE / Ca / Cl / DBIL / GLC / IP / K / LDH / Na / PL / RALB / TBIL / TC / TG / TP / gamma-GTP: tissue Plasma

Compound: CCC1(c2ccccc2)C(=O)NC(=O)NC1=O [PHENOBARBITAL]
- TERMINAL_BW (9 h): 219.3 g
- APTT (9 h): 20.6 s
- Bas (9 h): 0%
- Eos (9 h): 0.4%
- Fbg (9 h): 215 mg/dL
- Hb (9 h): 14.1 g/dL
- Ht (9 h): 38.6%
- Lym (9 h): 76.6%
- MCH (9 h): 22.1 pg
- MCHC (9 h): 36.5%
- MCV (9 h): 60.5 fL
- Mono (9 h): 3%
- Neu (9 h): 19%
- PT (9 h): 12.2 s
- Plat (9 h): 121.6 x10_4/uL
- RBC (9 h): 637.8 x10_4/ul
- Ret (9 h): 7.7%
- WBC (9 h): 96.4 x10_2/uL
- KIDNEY_L (9 h): 1 g
- KIDNEY_R (9 h): 1 g
- KIDNEY_TOTAL (9 h): 2 g
- LIVER (9 h): 9.3 g
- A/G (9 h): 1.7
- ALP (9 h): 593.2 IU/L
- ALT (9 h): 26.6 IU/L
- AST (9 h): 58.6 IU/L
- BUN (9 h): 6.8 mg/dL
- CRE (9 h): 0.3 mg/dL
- Ca (9 h): 10.4 mg/dL
- Cl (9 h): 100 meq/L
- DBIL (9 h): 0.066 mg/dL
- GLC (9 h): 182 mg/dL
- IP (9 h): 9.5 mg/dL
- K (9 h): 4.1 meq/L
- LDH (9 h): 136 IU/L
- Na (9 h): 139.8 meq/L
- PL (9 h): 138.8 mg/dL
- RALB (9 h): 3.3 g/dL
- TBIL (9 h): 0.1 mg/dL
- TC (9 h): 70 mg/dL
- TG (9 h): 39 mg/dL
- TP (9 h): 5.2 g/dL
- gamma-GTP (9 h): 1 IU/L
- TERMINAL_BW (24 h): 234 g
- APTT (24 h): 19.2 s
- Bas (24 h): 0.8%
- Eos (24 h): 1%
- Fbg (24 h): 214.2 mg/dL
- Hb (24 h): 13.9 g/dL
- Ht (24 h): 38.4%
- Lym (24 h): 79.6%
- MCH (24 h): 21.8 pg
- MCHC (24 h): 36.2%
- MCV (24 h): 60.3 fL
- Mono (24 h): 2.2%
- Neu (24 h): 16%
- PT (24 h): 11.7 s
- Plat (24 h): 125.7 x10_4/uL
- RBC (24 h): 637 x10_4/ul
- Ret (24 h): 6.5%
- WBC (24 h): 106.3 x10_2/uL
- KIDNEY_L (24 h): 1.1 g
- KIDNEY_R (24 h): 1 g
- KIDNEY_TOTAL (24 h): 2.1 g
- LIVER (24 h): 11.5 g
- A/G (24 h): 1.6
- ALP (24 h): 882.2 IU/L
- ALT (24 h): 33.8 IU/L
- AST (24 h): 75.6 IU/L
- BUN (24 h): 16 mg/dL
- CRE (24 h): 0.4 mg/dL
- Ca (24 h): 10.8 mg/dL
- Cl (24 h): 102 meq/L
- DBIL (24 h): 0.058 mg/dL
- GLC (24 h): 180.6 mg/dL
- IP (24 h): 7.6 mg/dL
- K (24 h): 4.2 meq/L
- LDH (24 h): 264.4 IU/L
- Na (24 h): 142.4 meq/L
- PL (24 h): 142.2 mg/dL
- RALB (24 h): 3.5 g/dL
- TBIL (24 h): 0.1 mg/dL
- TC (24 h): 72 mg/dL
- TG (24 h): 113.2 mg/dL
- TP (24 h): 5.7 g/dL
- gamma-GTP (24 h): 1.2 IU/L
